Test results as given in patent US20250049778A1, “CRYSTALLINE FORM OF GLP-1 RECEPTOR AGONIST AND PREPARATION METHOD THEREFOR” (JIANGSU HENGRUI PHARMACEUTICALS CO., LTD., priority 2021, published 2025).

Legend:
Assay type in all cases: physicochemical
[1] = Hygroscopicity of crystal forms by dynamic vapor sorption (DVS) at 25° C.; details: for Crystal form after DVS: two cycles
Protocol: Surface Measurement Systems advantage 2 is used for detection at 25° C. The humidity is 50%-95%-0%-95%-50% RH. The step is 10%. The criterion is that the mass change dM/dT for each step is less than 0.002%. TMAX is 360 min. Two cycles are carried out.
Surface Measurement Systems intrinsic DVS was used at 25° C. The observed humidity ranged from 0% to 95%. The step was 10%. The criterion was that the mass change dM/dT for each step was less than 0.002%. TMAX was 360 min. Two cycles were carried out.

[2] = Long-term/accelerated stability, sealed with aluminum foil bag
Description: The results were as shown below.

[3] = Stability of crystal forms placed open under illumination, high temperature and high humidity, 30 days; details: for Physical and chemical stability (summary): illumination, 40° C. and 60° C., 75% RH and 92.5% RH
Description: The sampling and investigation period was 30 days.

[4] = Illumination (4500 Lux), 5 days
[5] = Illumination (4500 Lux), 10 days
[6] = Illumination (4500 Lux), 30 days

Hygroscopic weight gain 0.0% RH to 80.0% RH [1] | Crystal form after DVS [1] | Purity % ([2]; 25° C./60% RH, 1 month) | Purity % ([2]; 25° C./60% RH, 3 months) | Purity % ([2]; 40° C./75% RH, 1 month) | Purity % ([2]; 40° C./75% RH, 3 months) | Purity % ([2]; Initial condition) | Purity % ([3]; 40° C., 5 days) | Purity % ([3]; 40° C., 10 days) | Purity % ([3]; 40° C., 30 days) | Purity % ([3]; 60° C., 5 days) | Purity % ([3]; 60° C., 10 days) | Purity % ([3]; 60° C., 30 days) | Purity % ([3]; 75% RH, 5 days) | Purity % ([3]; 75% RH, 10 days) | Purity % ([3]; 75% RH, 30 days) | Purity % ([3]; 92.5% RH, 5 days) | Purity % ([3]; 92.5% RH, 10 days) | Purity % ([3]; 92.5% RH, 30 days) | Purity % [3, 4] | Structure (SMILES) | other results
0.65% | Unchanged | 99.5% | 99.5% | 99.5% | 99.5% | 99.5% | 98.8% | 98.8% | 98.8% | 98.8% | 98.7% | 98.8% | 98.7% | 98.7% | 98.7% | 98.8% | 98.7% | 98.8% | 98.7% | O=C(O)c1ccc2nc(CN3CCC(c4cccc5c4O[C@@H](c4ccc(Cl)cc4F)CO5)CC3)n(C[C@@H]3CCO3)c2c1 [Crystal form A of Compound A, 2-((4-((S)-3-(4-chloro-2-fluorophenyl)-2,3-dihydrobenzo[b][1,4]dioxan-5-yl)piperidin-1-yl)methyl)-1-(((S)-oxetan-2-yl)methyl)-1H-benzo[d]imidazole-6-carboxylic acid] | Purity % ([2]; 25° C./60% RH, 6 months): 99.5%; Crystal form ([2]; 25° C./60% RH, up to 6 months): Unchanged; Purity % ([2]; 40° C./75% RH, 6 months): 99.5%; Crystal form ([2]; 40° C./75% RH, up to 6 months): Unchanged; Physical and chemical stability (summary) ([2]; placed for 6 months under long-term accelerated conditions): good physical and chemical stability; Purity % [3, 5]: 98.7%; Purity % [3, 6]: 98.8%; Purity % ([3]; Initial condition, 0 days): 98.7%; Physical and chemical stability (summary) ([3]; 30 days): good physical and chemical stability
1.95% | Unchanged | 98.6% | 98.5% | 98.6% | 98.3% | 98.5% | 98.4% | 98.5% | 98.5% | 98.5% | 98.6% | 98.6% | 98.5% | 98.6% | 98.5% | 98.6% | 98.6% | 98.5% | 98.5% | O=C(O)c1ccc2nc(CN3CCC(c4cccc5c4O[C@@H](c4ccc(Cl)cc4F)CO5)CC3)n(C[C@@H]3CCO3)c2c1 [Crystal form D of Compound A, 2-((4-((S)-3-(4-chloro-2-fluorophenyl)-2,3-dihydrobenzo[b][1,4]dioxan-5-yl)piperidin-1-yl)methyl)-1-(((S)-oxetan-2-yl)methyl)-1H-benzo[d]imidazole-6-carboxylic acid] | Purity % ([2]; 25° C./60% RH, 2 months): 98.6%; Crystal form ([2]; 25° C./60% RH, up to 3 months): Unchanged; Purity % ([2]; 40° C./75% RH, 2 months): 98.4%; Crystal form ([2]; 40° C./75% RH, up to 3 months): Unchanged; Physical and chemical stability (summary) ([2]; placed for 3 months under long-term accelerated conditions): good physical and chemical stability; Purity % [3, 5]: 98.6%; Purity % [3, 6]: 98.6%; Purity % ([3]; Initial condition, 0 days): 98.5%; Physical and chemical stability (summary) ([3]; 30 days): good physical and chemical stability
